Test results taken from ChEMBL document CHEMBL1201862, “PubChem BioAssay data set” (2004).
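All cell lines were grown in 96-well plates and treated with compound for 48 hours. At the GI50, growth is halved.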 The source made the active and inactive calls. No stated cut-off is given here; in the data, active = GI50 up to about 1.1 µM and inactive = higher.

Experiments:
Assay in all cases: DTP human tumour cell line panel, 48 h
IGROV-1 = test system: IGROV-1
SN12C = test system: SN12C
TK-10 = test system: TK-10
LOX IMVI = test system: LOX IMVI
SNB-78 = test system: SNB-78
CCRF-CEM = test system: CCRF-CEM
SK-MEL-2 = test system: SK-MEL-2
SF-268 = test system: SF-268
SNB-19 = test system: SNB-19
OVCAR-5 = test system: OVCAR-5
HCC 2998 = test system: HCC 2998
OVCAR-3 = test system: OVCAR-3
NCI-H226 = test system: NCI-H226
A498 = test system: A498
U-251 = test system: U-251
HOP-62 = test system: HOP-62
SNB-75 = test system: SNB-75
EKVX = test system: EKVX
MDA-MB-435 = test system: MDA-MB-435
T47D = test system: T47D

Measured: GI50

S=P(N1CCCC1)(N1CC1)N1CC1
inactive: IGROV-1 > 100 µM | SN12C > 100 µM | TK-10 > 100 µM | LOX IMVI > 100 µM | SNB-78 > 100 µM | CCRF-CEM 73.1 µM | SK-MEL-2 > 100 µM | SF-268 > 100 µM | SNB-19 84.1 µM | OVCAR-5 > 100 µM | HCC 2998 > 100 µM | OVCAR-3 > 100 µM | NCI-H226 > 100 µM | A498 > 100 µM | U-251 > 100 µM | HOP-62 > 100 µM | SNB-75 > 100 µM | EKVX > 100 µM

CC(C)(C)/N=C1/CC(C)(C)c2ccccc2/C(=N\c2ccccc2)S1
inactive: IGROV-1 48.3 µM | SN12C 29.4 µM | TK-10 75.9 µM | LOX IMVI 18.6 µM | SNB-78 41.5 µM | CCRF-CEM 26.9 µM | SK-MEL-2 34.4 µM | SF-268 28.2 µM | SNB-19 36.2 µM | OVCAR-5 37.9 µM | HCC 2998 35.2 µM | OVCAR-3 33.1 µM | NCI-H226 47.3 µM | A498 43 µM | U-251 30.6 µM | HOP-62 44.7 µM | SNB-75 32.5 µM | EKVX 55.5 µM

Cc1ccccc1C(=O)c1ccccc1O
inactive: IGROV-1 > 100 µM | SN12C > 100 µM | TK-10 > 100 µM | LOX IMVI > 100 µM | SNB-78 > 100 µM | CCRF-CEM > 100 µM | SK-MEL-2 > 100 µM | SF-268 > 100 µM | SNB-19 > 100 µM | OVCAR-5 > 100 µM | HCC 2998 > 100 µM | OVCAR-3 > 100 µM | NCI-H226 > 100 µM | A498 > 100 µM | U-251 > 100 µM | HOP-62 > 100 µM | SNB-75 > 79.6 µM | EKVX > 100 µM

Cc1ccc(C2=C(c3ccccc3)C(Br)(c3ccccc3)C(c3ccccc3)=C2c2ccc(C)cc2)cc1
inactive: IGROV-1 > 100 µM | SN12C > 100 µM | TK-10 > 100 µM | SNB-78 > 100 µM | CCRF-CEM > 100 µM | SK-MEL-2 > 100 µM | SF-268 > 100 µM | SNB-19 > 100 µM | OVCAR-5 > 100 µM | OVCAR-3 > 100 µM | NCI-H226 > 100 µM | A498 > 100 µM | U-251 > 100 µM | HOP-62 > 100 µM | SNB-75 > 100 µM | EKVX > 100 µM

O=c1[nH]c(=O)n(C2CC(O)C(CO)O2)cc1COCC(F)(F)F (stereo not drawn)
inactive: IGROV-1 > 100 µM | SN12C > 100 µM | TK-10 > 100 µM | LOX IMVI > 100 µM | SNB-78 > 100 µM | CCRF-CEM 86.5 µM | SK-MEL-2 > 100 µM | SF-268 > 100 µM | SNB-19 > 100 µM | OVCAR-5 > 100 µM | HCC 2998 > 100 µM | OVCAR-3 > 100 µM | A498 > 100 µM | U-251 > 100 µM | HOP-62 > 100 µM | SNB-75 > 100 µM | EKVX > 100 µM

O=C1C(=O)N(c2ccc(Cl)c(Cl)c2)C(=O)C(=O)C1c1nc2ccccc2o1
inactive: IGROV-1 > 100 µM | SN12C 94.6 µM | TK-10 > 100 µM | LOX IMVI > 100 µM | SNB-78 66.4 µM | SK-MEL-2 > 100 µM | SF-268 > 100 µM | SNB-19 72.9 µM | OVCAR-5 > 100 µM | HCC 2998 > 100 µM | OVCAR-3 > 100 µM | NCI-H226 > 100 µM | U-251 33.3 µM | HOP-62 > 100 µM | SNB-75 > 100 µM

Nc1nc(O)c([N+](=O)[O-])c(NCCOCP(=O)(O)O)n1
inactive: IGROV-1 > 100 µM | SN12C > 100 µM | TK-10 > 100 µM | LOX IMVI > 100 µM | SNB-78 > 100 µM | CCRF-CEM > 100 µM | SK-MEL-2 > 100 µM | SF-268 > 100 µM | SNB-19 > 100 µM | HCC 2998 > 100 µM | OVCAR-3 > 100 µM | NCI-H226 > 100 µM | U-251 > 100 µM | HOP-62 > 100 µM | SNB-75 > 100 µM | EKVX > 100 µM

CCC1(c2c(F)c(F)c(N)c(F)c2F)CCC(=O)NC1=O (stereo not drawn)
inactive: IGROV-1 > 100 µM | TK-10 > 100 µM | LOX IMVI > 100 µM | SNB-78 > 100 µM | CCRF-CEM > 100 µM | SK-MEL-2 > 100 µM | SF-268 > 100 µM | SNB-19 > 100 µM | OVCAR-5 > 100 µM | HCC 2998 > 100 µM | OVCAR-3 > 100 µM | NCI-H226 > 100 µM | A498 > 100 µM | U-251 > 100 µM | HOP-62 > 100 µM | SNB-75 38.7 µM | EKVX > 100 µM

O=C(CN1CCN(Cc2ccccc2)CC1)N1CCCn2c1nc1ccccc1c2=O
inactive: IGROV-1 > 100 µM | MDA-MB-435 > 100 µM | SN12C > 100 µM | T47D > 100 µM | TK-10 > 100 µM | LOX IMVI > 100 µM | CCRF-CEM > 100 µM | SK-MEL-2 > 100 µM | SF-268 > 100 µM | SNB-19 > 100 µM | OVCAR-5 > 100 µM | HCC 2998 > 100 µM | OVCAR-3 > 100 µM | NCI-H226 29.2 µM | A498 > 100 µM | U-251 > 100 µM | HOP-62 > 100 µM | SNB-75 > 100 µM | EKVX > 100 µM

O=C1C[C@H]2CC3(CC[C@H]2CN1)OCCO3
inactive: IGROV-1 > 100 µM | SN12C > 100 µM | TK-10 > 100 µM | LOX IMVI > 100 µM | SNB-78 > 100 µM | CCRF-CEM > 100 µM | SK-MEL-2 > 100 µM | SF-268 > 100 µM | SNB-19 > 100 µM | HCC 2998 > 100 µM | OVCAR-3 > 100 µM | A498 > 100 µM | U-251 > 100 µM | HOP-62 > 100 µM | SNB-75 > 100 µM | EKVX > 100 µM

COC(=O)C1(Cc2ccccc2)Cc2cc3c(cc2C1=O)CCC3 (stereo not drawn)
inactive: IGROV-1 36 µM | MDA-MB-435 15.1 µM | SN12C 37.3 µM | T47D 13.4 µM | TK-10 64 µM | LOX IMVI 27 µM | CCRF-CEM 22.6 µM | SK-MEL-2 18.3 µM | SF-268 22.2 µM | SNB-19 47.1 µM | OVCAR-5 58.9 µM | HCC 2998 2.81 µM | OVCAR-3 40 µM | NCI-H226 27.4 µM | A498 28.2 µM | U-251 33.6 µM | HOP-62 80.5 µM | SNB-75 27.7 µM | EKVX 25.3 µM

Cc1ccc2c(O)cc(-c3cccs3)nc2n1
inactive: IGROV-1 4.86 µM | MDA-MB-435 1.58 µM | SN12C 19.1 µM | T47D 6.64 µM | TK-10 > 100 µM | LOX IMVI 11.4 µM | CCRF-CEM 15.3 µM | SK-MEL-2 > 25.9 µM | SF-268 49.8 µM | SNB-19 11.7 µM | OVCAR-5 > 22.3 µM | HCC 2998 12.9 µM | OVCAR-3 14.3 µM | NCI-H226 8.91 µM | A498 > 54.8 µM | U-251 12.1 µM | HOP-62 37.9 µM | SNB-75 10.1 µM | EKVX 57 µM
